How the values were obtained:
[1] = tested on: Geller Conflict Paradigm in Rats; test: Geller Conflict Paradigm in Rats (anxiolytic activity); format: in vivo; details: i.p.
From the text: The intraperitoneal (i.p.) dosages at which the following compounds show anxiolytic activity are: […]

[2] = tested on: N-methyl-D-aspartic acid (NMDA)-induced seizures; test: N-Methyl-D,L-Aspartic Acid Induced Seizure Assay (NMDA protection); format: in vivo; details: male Swiss Webster mice, ip; N-methyl-D,L-aspartic acid 350 mg/kg challenge; absence of clonic seizures during 30 minute observation
Method: In this assay, male Swiss Webster mice (Charles River), 18-25 grams are used. Animals are ordered at 33 to 36 days of age and can be used for 8 days after arrival. They are housed for at least 24 hours in a climate controlled animal colony with food and water available ad libimm. On the day of testing, animals are brought to the laboratory and randomly assigned to groups. N-Methyl-D,L-aspartic acid (350 mg) is dissolved in 10 ml of saline and mixed thoroughly with a homogenizer for 1-2 minutes. Test compounds are prepared in distilled water and, if insoluable, a suitable surfactant is added. For a primary screen the test compound is administered at 60 mg/kg, ip (10 ml/kg), to groups of ten mice, 30 minutes prior to challenge with N-methyl-D,L-aspartic acid (350 mg/kg, […]). After N-Methyl-D,L-aspartic acid administration animals are placed individually in clear plastic cyclinders (12"×5.5"×1/4") and then observed for clonic seizures. N-methyl-D,L-aspartic acid will produce clonic seizures, and sometimes tonic seizures and death, in vehicle control animals.
A clonic convulsion is defined as a single episode of clonic spasms of a least a 3 second duration. […]
Data is calculated by the method of J. T. Litchfield, Jr. and F. Wileoxon. […]
The normalized percent protection is calculated using the following formula: [formula]

Compound: CCNC(Cc1ccccc1N)c1sccc1C.Cl.Cl (stereo not drawn) [2-Amino-N-ethyl-α-(3-methyl-2-thienyl)benzeneethanamine dihydrochloride]
- Anti-Conflict Response % Change Compared to Control ([1]; 1 mg/kg): +100%
- Anti-Conflict Response % Change Compared to Control ([1]; 5 mg/kg): +70%

Compound: CN1C(=O)CN=C(c2ccccc2)c2cc(Cl)ccc21 [Diazepam, reference compound]
- Anti-Conflict Response % Change Compared to Control ([1]; 10 mg/kg): +180%
- Anti-Conflict Response % Change Compared to Control ([1]; 20 mg/kg): +630%

Compound: 2-Amino-α-(3-methyl-3-thienyl)benzeneethanamine
- NMDA Protection ED50 [2]: 19.0 mg/kg

Reference: patent US5510346A, “4-heteroaryl-1,3-benzodiazepines and 2-substituted-gamma-(heteroaryl)benzeneethanamines” (Hoechst Marion Roussel, Inc., priority 1991, dated 1996)
